Source: patent publication US12064453B2, “Biochemical and biomechanical conditioning for enhancing personalized mesenchymal stem cell therapies” (BOARD OF REGENTS, THE UNIVERSITY OF TEXAS SYSTEM, priority 2017, dated 2024)

How the values were obtained:
[1] = tested on: Human mesenchymal stem cells (hMSCs); experiment: Long term conditioning of hMSCs with biochemical factors and mechanical load, immunostaining; type: cell-based; conditions: seven days; for paxillin levels: with and without load (0.1 Hz, 7.5% strain, 4 hours daily); for endothelial marker vWF: in combination with mechanical loading
Method: Human mesenchymal stem cells (hMSCs; Millipore) were cultured in low glucose DMEM medium supplemented with 15% fetal bovine serum, L-glutamine, and penicillin/streptomycin. Following trypsinization, cells were seeded on the membranes at 4,000 cells per cm^2 before mechanical loading. Immunocytochemical staining. Cells were fixed in 4% paraformaldehyde in PBS for 10 min followed by washing and permeabilization with 0.1% Triton X-100 PBS for 5 min. Next, samples were blocked with 1% BSA 5% FBS in PBS for 40 min. After washing, cells were incubated with primary antibodies (Table 1) overnight at 4° C. The next day, samples were washed in 1% BSA in PBS and was incubated with secondary antibodies and DAPI staining for 2 hours in a light protected environment. For actin staining, an alternative step was used in which samples were treated with Alexa 594 conjugated phalloidin for 30 min. Cells were washed thoroughly before they were imaged. For standard fluorescent microscopy, Zeiss Observerl was used. […] Long term conditioning of hMSCs using biochemical factors. For long term loading, cells were exposed to media containing small biomolecules (Table 3). They were loaded for 4 hours every day for 7 days under sine and brachial waveform at 0.1 Hz and 7.5% maximum strain and compared against those in static culture. Media containing the biomolecules were replaced on day 3 and day 5, with the exception of 5-Aza containing media. Due to the cytotoxic nature of 5-Aza, it was replaced with normal media on day 1. On day 6, media was replaced with 0.5% FBS containing media post loading. Following long term loading on day 7, the condition media was collected and further assays were performed on the cells. To examine the ability of long term application of mechanical loading in conditioning MSCs, the cells were treated with treatments known to cause differentiation into vascular/cardiovascular phenotypes including 5-azacitidine (5-aza), Dexamethasone with insulin (Dex+Ins), PDGF-BB, hydrocortisone (Hydrocort), EGF, VEGF-A, and TGF-β1.

Smad2/3 = experiment: Smad transcription factor activity, multi-strain mechanical loading; type: cell-based, human; conditions: MSCs; 0.1 Hz, 7.5% strain, 24 hours, co-treatment
Method: Transcription factor activity assay.
To perform a high throughput assay of the dependence of magnitude of mechanical strain on the activation of Smad2/3, the heights of the individual pistons were adjusted to apply mechanical strains over a range of 0 to 17.5% strain, in increments of 2.5% strain (FIGS. 2B-D). […] The regulation of differentiation-related pathways in MSCs was examined by loading the cells for 24 hours under multi-strain conditions at 0.1 Hz and performing immunostaining. A maximal increase in nuclear to cytoplasmic Yap/Taz was found at 7.5% strain and maximal nuclear localization of Smad2/3 at 10-12.5% strain (FIG. 2F). In addition, there was a maximal increase in α-SMA expression in the range of strains from 7.5-12.5% strain (FIG. 2G). At 10-15% strain, there was a maximal increase in polymerized actin and paxillin (FIG. 2G). The mechanical loading was repeated at 7.5% strain with 0.1 Hz frequency using both sine and brachial waveforms and then performed western blotting. With brachial waveform loading, increases in PECAM-1 expression were found and as well as a reduction in α-SMA expression and an increase in p-Smad 2/3 (FIGS. 2H, I). Overall, these studies support maximal activation of Smad signaling in MSCs with 0.1 Hz of loading at 7.5% strain, with an increase in endothelial-like phenotype with brachial loading.

[2] = tested on: Human mesenchymal stem cells (hMSCs); experiment: Oil Red O or Alizarin Red staining for adipogenic and osteogenic differentiation; type: cell-based
Method: Long term conditioning of hMSCs using biochemical factors. For long term loading, cells were exposed to media containing small biomolecules (Table 3). They were loaded for 4 hours every day for 7 days under sine and brachial waveform at 0.1 Hz and 7.5% maximum strain and compared against those in static culture. Media containing the biomolecules were replaced on day 3 and day 5, with the exception of 5-Aza containing media. Due to the cytotoxic nature of 5-Aza, it was replaced with normal media on day 1. On day 6, media was replaced with 0.5% FBS containing media post loading. Following long term loading on day 7, the condition media was collected and further assays were performed on the cells. […] To test for adipogenic and osteogenic differentiation, the cells were also stained using Oil Red O or Alizarin Red dye.

FOXO = conditions: MSCs; VEGF at 2 Hz frequency of loading (5% maximal strain) or at 1 Hz; 10 ng/ml; 8 hours
Method: (§1) Transcription factor activity assay. The cells were transduced with luminescent reporter vectors for target transcription factors. Briefly, for each target transcription factor, freshly passaged hMSCs were treated with luciferase reporter expressing lentiviruses (Qiagen). For the drug screening assay, hMSCs were treated with biomolecules in the kinase inhibitor library (Millipore Calbiochem) 1 hour prior to loading. After mechanical loading, the cells were lysed and the relative luminescent signal was measured using the luciferase assay kit (Promega) with FlexStation-3 plate reader (Molecular Devices). For each plate, average from three individual readings was reported.
(§2) A major limitation of previous studies in mechanobiology is the limited ability to investigate a variety of conditions simultaneously. This gap in capability leads to an incomplete exploration of the range of mechanical conditions and greatly reduces the ability to examine synergy between applied mechanical forces and biochemical signals. Mesenchymal stem cells were transduced with lentiviruses expressing luciferase reporter constructs for transcription factors including FOXO, TCF/LEF, Smad2/3 and SRE and selected these to obtain a stable reporter cell line. […]

TCF/LEF = conditions: MSCs; loading at 0.1 Hz with VEGF treatment; 10 ng/ml; 8 hours
Method: as §1, §2

[3] = tested on: Human mesenchymal stem cells (hMSCs); conditions: long term conditioning
Description: Fluorescence Activated Cell Sorting (FACS). After long term loading, the cells were then detached from the loading plate using accutase (Sigma) and was labeled with fluorescent antibodies according the BD Bioscience FACS staining kit (BD 562725) for cardiovascular phenotypes such as endothelial, smooth muscle, and pericyte phenotypes. […] Fortessa of UT Austin Core Facility was used to measure population fluorescent signals.
To address these issues, a combinatorial set of mechanical loading and biochemical or pharmacological treatments were applied to MSCs and the phenotype assessed using multiple markers using FACS (FIG. 5A).

Row | Compound | PECAM-1 ([1]; in combination with mechanical load) | paxillin levels [1] | endothelial marker vWF [1] | Smad transcription factor activity (Smad2/3) | nuclear localization of Yap/Taz ([1]; with mechanical loading, in comparison to other treatment groups) | Osteogenesis (Alizarin Red) ([2]; static conditions) | Osteogenesis (Alizarin Red) ([2]; with mechanical loading) | FOXO transcription factor activity (FOXO) | TCF/LEF transcription factor activity (TCF/LEF) | endothelial lineage defined by the FACS protocol [3]
1 | Nc1ncn([C@@H]2O[C@H](CO)[C@@H](O)[C@H]2O)c(=O)n1 [5-aza, 5-Azacytidine] | increased | increased paxillin levels | – | – | – | – | – | – | – | –
2 | EGF [growth factor, Sigma-Aldrich E9644, 10 ng/mL] | – | increased paxillin levels | to a lesser extent | – | – | – | – | – | – | –
3 | TGF-β1 | – | not increased | – | optimal synergistic activation | markedly reduced | observed | did not occur | – | – | –
4 | VEGF | – | increased paxillin levels | to a lesser extent | – | – | – | – | reduction in FOXO activity | synergistically activated | did not increase
